Results: patent US20060292244A1, “Use of pvp-iodine liposomes for treatment of acne” (priority 2003, published 2006)

System: Human ciliated epithelium cells
Assay: in-vitro ciliary activity / ciliary vibration test
Type: cell-based
Procedure: 1 test substance at a temperature of 37° C.

ciliary activity / ciliary vibration: decrease
Compound: N=C(NCCCCCCNC(=N)NC(=N)Nc1ccc(Cl)cc1)NC(=N)Nc1ccc(Cl)cc1 [chlorohexidine solution, chlorohexidine]
